Data taken from article PMC9181126, “Design, Synthesis, Molecular Docking Analysis and Biological Evaluations of 4-[(Quinolin-4-yl)amino]benzamide Derivatives as Novel Anti-Influenza Virus Agents” (International Journal of Molecular Sciences, 2022).
“And” between values parts separate entries of the source, which are not always exact repeats. Equal values may be shown once.

Experiments:
[1] = in vitro; assay type: cell-based, canine; conditions: dog
Method: (§1) The 3-(4,5-dimethylthiazol-2-yl)-2,5-diphenyltetrazolium bromide (MTT) method was performed to assess the cytotoxicity of target compounds in MDCK cells and HEK293T cells. Firstly, MDCK cells or HEK293T cells were seeded into the 96-well plate. Then, the media containing test compounds replaced the growth media after 48 h. Incubate MDCK cells or HEK293T cells with test compounds for 72 h at 37 °C in a humidified 5% CO2 incubator. Later, MTT solution (5 mg/mL in PBS) was added into each well and plates were incubated for 4 h at 37 °C. Then, add a solubilization solution to lyse cells. Finally, absorbance was read at 620 nm using an ELISA plate reader (Tecan Sunrise) after 3 h of further incubation at 37 °C. We set the values obtained from the wells treated with only DMSO as 100% of viable cells.

[2] = test system: MDCK cells; test: in vitro; assay type: cell-based, canine; conditions: dog, 72 h
Method: as §1

[3] = in vitro; assay type: cell-based; conditions: human
Method: as §1

[4] = test system: HEK293T cells; test: in vitro; assay type: cell-based; conditions: human, 72 h
Method: as §1

[5] = test system: influenza virus A/WSN/33 (H1N1); test: microbe, parasite or virus in culture; assay type: cell-based; conditions: MDCK, 72 h; for inhibition at 12.5 µM / inhibition at 25 µM / inhibition at 50 µM / inhibition at 100 µM: H1N1|WSN, read-out: Antiviral activity in CPE assay; for EC50: read-out: Cytopathic Effect Assay (A/WSN/33, H1N1) EC50
[6] = test system: influenza virus A/WSN/33 (H1N1); test: Plaque inhibition assay in MDCK cells; assay type: cell-based; conditions: MDCK, read-out: Plaque Inhibition Assay (A/WSN/33, H1N1) Inhibition Rate; for inhibition at 100 µM: concentration 100 µM
[7] = test system: PA-PB1 endonuclease; parameters: method as in supplement 1-7; conditions: training and test set compounds collected from literature; ref supplement 1-7; read-out: IC50 value Experimental (PA-PB1 endonuclease inhibitors); cited from earlier work

## CCOc1ccc(N2CCN(C(=O)c3ccc(Nc4ccnc5cc(C(F)(F)F)ccc45)cc3)CC2)cc1 [Compound G18, [4-(4-Ethoxyphenyl)piperazin-1-yl]{4-{[7-(trifluoromethyl)quinolin-4-yl]amino}phenyl}methanone]
[1]
  CC50 at 72 h: > 100 µM
[2]; 12.5 µmol·L−1
  MDCK cells survival rate: 112.99±2.36%
[2]; 25 µmol·L−1
  MDCK cells survival rate: 111.55±2.20%
[2]; 50 µmol·L−1
  MDCK cells survival rate: 138.28±6.89%
[2]; 100 µmol·L−1
  MDCK cells survival rate: 104.99±4.01%
[3]
  CC50 at 72 h: > 100 µM
[4]; 3.125 µmol·L−1
  HEK293T cells survival rate: 98.42±9.98%
[4]; 6.25 µmol·L−1
  HEK293T cells survival rate: 87.82±9.55%
[4]; 12.5 µmol·L−1
  HEK293T cells survival rate: 70.43±2.98%
[4]; 25 µmol·L−1
  HEK293T cells survival rate: 65.43±6.72%
[4]; 50 µmol·L−1
  HEK293T cells survival rate: 72.68±1.96%
[4]; 100 µmol·L−1
  HEK293T cells survival rate: 86.90±1.67%
[5]
  inhibition at 12.5 µM: 42.8 ± 0.57%
  inhibition at 25 µM: 39.5 ± 1.72%
  inhibition at 50 µM: 38.7 ± 4.29%
  inhibition at 100 µM: 35.5 ± 9.67%
  EC50: > 100 µM
[6]; concentration 25 µM
  inhibition at 25 µM: 16.3%
other
  melting point: 210 to 212.3 °C

## COc1ccccc1OCCNC(=O)c1ccc(Nc2ccnc3cc(C)ccc23)cc1 [Compound G21, N-[2-(2-Methoxyphenoxy)ethyl]-4-[(7-methylquinolin-4-yl)amino]benzamide]
[1]
  CC50 at 72 h: > 100 µM
[2]; 12.5 µmol·L−1
  MDCK cells survival rate: 83.41±3.67%
[2]; 25 µmol·L−1
  MDCK cells survival rate: 80.18±7.27%
[2]; 50 µmol·L−1
  MDCK cells survival rate: 93.28±9.93%
[2]; 100 µmol·L−1
  MDCK cells survival rate: 88.84±3.59%
[3]
  CC50 at 72 h: > 100 µM
[4]; 3.125 µmol·L−1
  HEK293T cells survival rate: 117.39±1.03%
[4]; 6.25 µmol·L−1
  HEK293T cells survival rate: 103.95±2.65%
[4]; 12.5 µmol·L−1
  HEK293T cells survival rate: 105.56±6.72%
[4]; 25 µmol·L−1
  HEK293T cells survival rate: 102.64±2.91%
[4]; 50 µmol·L−1
  HEK293T cells survival rate: 110.67±8.55%
[4]; 100 µmol·L−1
  HEK293T cells survival rate: 50.09±0.70%
[5]
  inhibition at 12.5 µM: 43 ± 7.31%
  inhibition at 25 µM: 39.8 ± 7.16%
  inhibition at 50 µM: 39.8 ± 6.58%
  inhibition at 100 µM: 50.1 ± 5.45%
  EC50: > 100 µM
[6]
  inhibition at 100 µM: 11.5%
other
  melting point: 209.6 to 210.6 °C

## CCC(C)NC(=O)c1ccccc1NC(=O)c1cccc(S(=O)(=O)Nc2ccccc2)c1 (centres unmarked) [Compound H04]
[7]
  IC50: 9.2 µM

## COc1ccccc1OCCNC(=O)c1ccc(Nc2ccnc3ccc(Cl)cc23)cc1 [Compound G25, N-[2-(2-Methoxyphenoxy)ethyl]-4-[(6-chloroquinolin-4-yl)amino]benzamide]
[1]
  CC50 at 72 h: > 100 µM
[2]; 12.5 µmol·L−1
  MDCK cells survival rate: 92.58±5.23%
[2]; 25 µmol·L−1
  MDCK cells survival rate: 85.96±5.73%
[2]; 50 µmol·L−1
  MDCK cells survival rate: 86.83±3.19%
[2]; 100 µmol·L−1
  MDCK cells survival rate: 79.32±11.90%
[3]
  CC50 at 72 h: > 100 µM
[4]; 3.125 µmol·L−1
  HEK293T cells survival rate: 104.71±1.87%
[4]; 6.25 µmol·L−1
  HEK293T cells survival rate: 103.50±6.33%
[4]; 12.5 µmol·L−1
  HEK293T cells survival rate: 99.13±1.95%
[4]; 25 µmol·L−1
  HEK293T cells survival rate: 65.73±7.64%
[4]; 50 µmol·L−1
  HEK293T cells survival rate: 101.61±11.65%
[4]; 100 µmol·L−1
  HEK293T cells survival rate: 110.35±11.54%
[5]
  inhibition at 12.5 µM: 26.1 ± 0.67%
  inhibition at 25 µM: 25.7 ± 2.29%
  inhibition at 50 µM: 22.5 ± 1.29%
  inhibition at 100 µM: 22.3 ± 0.4%
  EC50: > 100 µM
[6]
  inhibition at 100 µM: 0%
other
  melting point: 247.7 to 248.4 °C

## NC(=O)c1c(NC(=O)c2nc3nc(-c4ccccc4)cc(C(F)(F)F)n3n2)sc2c1CCCC2 [Compound H02, N-(3-carbamoyl-4,5,6,7-tetrahydrobenzo[b]thiophen-2-yl)-5-phenyl-7-(trifluoromethyl)-[1,2, 4]triazolo[1,5-a]pyrimidine-2-carboxamide]
[7]
  IC50: 7.5 µM and 6.2 µM

## O=C(O)c1ccc(Nc2ccnc3cc(C(F)(F)F)ccc23)cc1 [4-{[7-(Trifluoromethyl)quinolin-4-yl]amino}benzoic acid]
[5]
  EC50: 22.9 µM
[6]; concentration 50 µM
  inhibition at 50 µM: 50%
other
  melting point: 323.7 to 324.9 °C

## O=C(c1ccc(Nc2ccnc3cc(C(F)(F)F)ccc23)cc1)N1CCN(c2cccc(C(F)(F)F)c2)CC1 [Compound G16, {4-[3-(Trifluoromethyl)phenyl]piperazin-1-yl}{4-{[7-(trifluoromethyl)quinolin-4-yl]amino}phenyl}methanone]
[1]
  CC50 at 72 h: > 100 µM
[2]; 12.5 µmol·L−1
  MDCK cells survival rate: 83.03±1.26%
[2]; 25 µmol·L−1
  MDCK cells survival rate: 85.52±2.56%
[2]; 50 µmol·L−1
  MDCK cells survival rate: 92.23±7.81%
[2]; 100 µmol·L−1
  MDCK cells survival rate: 103.91±10.21%
[3]
  CC50 at 72 h: > 100 µM
[4]; 3.125 µmol·L−1
  HEK293T cells survival rate: 89.31±3.06%
[4]; 6.25 µmol·L−1
  HEK293T cells survival rate: 79.52±2.87%
[4]; 12.5 µmol·L−1
  HEK293T cells survival rate: 80.26±3.54%
[4]; 25 µmol·L−1
  HEK293T cells survival rate: 75.35±5.51%
[4]; 50 µmol·L−1
  HEK293T cells survival rate: 70.68±3.36%
[4]; 100 µmol·L−1
  HEK293T cells survival rate: 66.51±2.68%
[5]
  inhibition at 12.5 µM: 15.7 ± 1.33%
  inhibition at 25 µM: 36.8 ± 3.16%
  inhibition at 50 µM: 33.8 ± 2.71%
  inhibition at 100 µM: 45.7 ± 2.09%
  EC50: > 100 µM
other
  melting point: 217 to 218.5 °C
